# Patent US20060014673A1 (priority 1998, published 2006)
# Like-named read-outs stand apart in the source and are kept apart here.
# What was measured:
# [1] = tested on: Primary cultures of neonatal rat cortex; type: cell-based
# [2] = tested on: Primary cultures of neonatal rat cortex; type: cell-based; remark: listed apart in the source
Compound,effect on intracellular calcium [1],potency in non-depolarized compared with depolarized cultures [1],"effect on intracellular calcium ([2]; depolarized conditions (aconitine), substance alone)",effect on intracellular calcium [2]
"Nc1ccncc1 [4-AP, 4-aminopyridine]",significant effect,slightly less potent,induces an increase in intracellular calcium,
dendrotoxin,,,,caused an increase in intracellular calcium
